The source made the active and inactive calls.
Legend:
[1] = target: T1, Serine/threonine-protein phosphatase (Candida dubliniensis (strain CD36 / CBS 7987 / NCPF 3949 / NRRLY-17841) (Yeast), UniProt B9W6M3); test: calcineurin pathway inhibitors in yeast reporter, dose response, S. cerevisiae, CDRE-lacZ, luminescence, secondary (AID 2388); format: functional, cell-based;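 also: yeast reporter cells carrying a calcineurin-responsive lacZ construct stimulated with calcium chloride; luminescent beta-galactosidase reporter signal in whole cells rather than isolated phosphatase activity; potency for inhibition where a drop in reporter signal means calcineurin blockade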
T1 sequence (B9W6M3 whole entry): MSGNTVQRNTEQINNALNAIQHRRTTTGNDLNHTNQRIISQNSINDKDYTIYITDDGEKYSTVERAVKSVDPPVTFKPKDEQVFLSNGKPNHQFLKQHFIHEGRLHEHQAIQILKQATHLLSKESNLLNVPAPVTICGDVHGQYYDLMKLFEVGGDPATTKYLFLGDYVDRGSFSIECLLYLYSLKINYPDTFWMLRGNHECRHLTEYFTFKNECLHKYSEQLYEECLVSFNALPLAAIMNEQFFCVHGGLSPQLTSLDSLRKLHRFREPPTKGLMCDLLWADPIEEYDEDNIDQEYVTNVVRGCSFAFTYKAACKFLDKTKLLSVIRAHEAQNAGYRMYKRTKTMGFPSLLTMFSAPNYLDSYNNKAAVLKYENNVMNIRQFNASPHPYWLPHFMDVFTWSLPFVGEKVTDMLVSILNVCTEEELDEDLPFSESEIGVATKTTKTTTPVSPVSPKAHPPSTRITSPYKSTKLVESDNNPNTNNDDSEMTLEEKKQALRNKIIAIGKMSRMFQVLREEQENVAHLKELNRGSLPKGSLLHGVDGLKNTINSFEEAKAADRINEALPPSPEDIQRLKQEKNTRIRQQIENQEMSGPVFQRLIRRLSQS

[2] = Counterscreen for AddAB inhibitors: absorbance-based bacterial cell-based high throughput dose response assay for inhibitors of bacterial viability. [Related pubchem assays (depositor defined):AID435030, AID449728, AID449731, AID488942, AID488955, AID488956]; format: functional
[3] = target: ATP-dependent molecular chaperone HSP82 (Candida albicans (strain WO-1) (Yeast), UniProt C4YTQ8); test: loss of DOC-induced GRE-beta-galactosidase reporter signal, dose response, Hsp90 inhibitor project, S. cerevisiae, luminescence (AID 2400); format: functional, cell-based;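 also: beta-galactosidase luminescence from glucocorticoid response element reporter as proxy for Hsp90 function; inhibitor potency where signal loss means Hsp90 inhibition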
Chain of ATP-dependent molecular chaperone HSP82 (C4YTQ8 whole entry): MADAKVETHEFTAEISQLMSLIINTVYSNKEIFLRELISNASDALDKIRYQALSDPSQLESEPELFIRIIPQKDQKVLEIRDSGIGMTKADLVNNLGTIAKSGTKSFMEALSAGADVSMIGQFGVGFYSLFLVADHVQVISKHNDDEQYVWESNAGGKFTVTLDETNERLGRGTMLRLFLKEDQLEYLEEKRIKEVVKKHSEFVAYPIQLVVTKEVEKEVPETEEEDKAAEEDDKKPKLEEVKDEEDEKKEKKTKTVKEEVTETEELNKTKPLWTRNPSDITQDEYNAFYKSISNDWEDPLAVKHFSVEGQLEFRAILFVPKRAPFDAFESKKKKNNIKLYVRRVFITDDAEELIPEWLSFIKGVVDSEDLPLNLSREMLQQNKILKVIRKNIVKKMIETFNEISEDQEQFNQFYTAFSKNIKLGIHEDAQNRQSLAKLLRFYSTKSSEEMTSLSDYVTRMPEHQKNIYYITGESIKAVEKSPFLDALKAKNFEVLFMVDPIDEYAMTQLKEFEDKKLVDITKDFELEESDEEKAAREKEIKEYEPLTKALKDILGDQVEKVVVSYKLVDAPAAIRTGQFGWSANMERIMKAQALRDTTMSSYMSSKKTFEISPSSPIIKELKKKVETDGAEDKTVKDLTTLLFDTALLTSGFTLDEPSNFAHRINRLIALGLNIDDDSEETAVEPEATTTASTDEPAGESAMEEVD

[4] = target: T2, Sentrin-specific protease 6 (Homo sapiens, UniProt Q9GZR1); format: functional;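 also: Luminescence-based dose-response confirmatory assay of SENP6 inhibition, following up an ultra-high-throughput screen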
T2 sequence (Q9GZR1 whole entry): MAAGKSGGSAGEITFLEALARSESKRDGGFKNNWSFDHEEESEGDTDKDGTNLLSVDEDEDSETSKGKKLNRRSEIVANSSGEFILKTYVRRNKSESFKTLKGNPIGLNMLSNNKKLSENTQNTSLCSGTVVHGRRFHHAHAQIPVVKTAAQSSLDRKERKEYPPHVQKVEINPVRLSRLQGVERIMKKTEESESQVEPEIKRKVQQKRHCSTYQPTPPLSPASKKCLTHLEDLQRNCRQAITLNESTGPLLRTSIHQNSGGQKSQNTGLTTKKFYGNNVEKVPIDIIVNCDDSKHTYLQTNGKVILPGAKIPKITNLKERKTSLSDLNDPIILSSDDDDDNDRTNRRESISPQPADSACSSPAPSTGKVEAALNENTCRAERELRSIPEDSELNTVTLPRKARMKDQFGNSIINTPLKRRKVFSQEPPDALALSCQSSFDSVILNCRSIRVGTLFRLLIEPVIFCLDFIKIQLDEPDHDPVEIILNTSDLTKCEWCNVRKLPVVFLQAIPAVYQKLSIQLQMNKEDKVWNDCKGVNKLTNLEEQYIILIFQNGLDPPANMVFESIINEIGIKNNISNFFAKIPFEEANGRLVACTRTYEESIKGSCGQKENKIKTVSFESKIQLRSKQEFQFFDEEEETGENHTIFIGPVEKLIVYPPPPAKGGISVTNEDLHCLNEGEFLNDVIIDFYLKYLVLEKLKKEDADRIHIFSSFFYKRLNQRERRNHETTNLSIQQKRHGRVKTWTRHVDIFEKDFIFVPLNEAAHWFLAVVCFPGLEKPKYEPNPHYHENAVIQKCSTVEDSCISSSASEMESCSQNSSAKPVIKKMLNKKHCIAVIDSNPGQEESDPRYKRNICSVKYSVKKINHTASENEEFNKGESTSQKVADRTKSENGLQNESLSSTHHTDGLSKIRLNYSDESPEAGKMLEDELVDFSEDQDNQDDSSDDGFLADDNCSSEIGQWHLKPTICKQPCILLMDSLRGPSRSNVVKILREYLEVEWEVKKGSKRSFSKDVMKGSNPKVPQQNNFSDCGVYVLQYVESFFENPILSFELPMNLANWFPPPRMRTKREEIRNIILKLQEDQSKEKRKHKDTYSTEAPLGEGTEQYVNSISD

Caspase-8 = Caspase-8 (Homo sapiens, UniProt Q14790); test: caspase-8 inhibition counter-screen, dose response, selectivity assay for caspase-6 inhibitor project, biochemical, Z-IETD-R110 fluorescence, cherry-picked samples (AID 743294)
Chain of Caspase-8 (Q14790 217-374 limits assumed): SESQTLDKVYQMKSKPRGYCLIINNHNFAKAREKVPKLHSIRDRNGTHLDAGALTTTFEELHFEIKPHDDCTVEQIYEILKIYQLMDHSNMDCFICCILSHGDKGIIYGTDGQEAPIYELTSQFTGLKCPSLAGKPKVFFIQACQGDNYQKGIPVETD
Chain of Caspase-8 (Q14790 385-479 limits assumed): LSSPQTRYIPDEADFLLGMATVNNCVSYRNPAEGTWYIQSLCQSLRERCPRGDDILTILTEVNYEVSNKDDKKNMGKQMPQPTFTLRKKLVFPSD

IC50 [4]	AC50 (Caspase-8)	SMILES	EC50 [1]	IC50 [2]	EC50 [3]
		CCCCC(=O)NC(c1ccc(N(C)C)cc1)c1ccc2cccnc2c1O (stereo not given)	> 180 µM (inactive)	> 119 µM (inactive)	> 160 µM (inactive)
4.72 µM (active)	23.8 µM (active)	CN(CC(=O)Nc1ccccc1Cl)C(=O)COC(=O)c1ccc([N+](=O)[O-])s1			

Reference: ChEMBL document CHEMBL1201862, “PubChem BioAssay data set” (2004)
